Experimental data reported in PMC4182434, “Characterization of Niphatenones that Inhibit Androgen Receptor N-Terminal Domain” (PLoS ONE, 2014).

Tests used:
[1] = target: T1, full-length AR (endogenous, LNCaP) (Homo sapiens, UniProt P10275, T878A); test: PB-luciferase reporter in LNCaP cells; assay type: cell-based; settings: R1881-induced, serum-free, […] h; antagonist, AF-1 directed; covalent
T1 construct: endogenous full-length AR of LNCaP cells
T1 sequence (P10275 1-920 T878A): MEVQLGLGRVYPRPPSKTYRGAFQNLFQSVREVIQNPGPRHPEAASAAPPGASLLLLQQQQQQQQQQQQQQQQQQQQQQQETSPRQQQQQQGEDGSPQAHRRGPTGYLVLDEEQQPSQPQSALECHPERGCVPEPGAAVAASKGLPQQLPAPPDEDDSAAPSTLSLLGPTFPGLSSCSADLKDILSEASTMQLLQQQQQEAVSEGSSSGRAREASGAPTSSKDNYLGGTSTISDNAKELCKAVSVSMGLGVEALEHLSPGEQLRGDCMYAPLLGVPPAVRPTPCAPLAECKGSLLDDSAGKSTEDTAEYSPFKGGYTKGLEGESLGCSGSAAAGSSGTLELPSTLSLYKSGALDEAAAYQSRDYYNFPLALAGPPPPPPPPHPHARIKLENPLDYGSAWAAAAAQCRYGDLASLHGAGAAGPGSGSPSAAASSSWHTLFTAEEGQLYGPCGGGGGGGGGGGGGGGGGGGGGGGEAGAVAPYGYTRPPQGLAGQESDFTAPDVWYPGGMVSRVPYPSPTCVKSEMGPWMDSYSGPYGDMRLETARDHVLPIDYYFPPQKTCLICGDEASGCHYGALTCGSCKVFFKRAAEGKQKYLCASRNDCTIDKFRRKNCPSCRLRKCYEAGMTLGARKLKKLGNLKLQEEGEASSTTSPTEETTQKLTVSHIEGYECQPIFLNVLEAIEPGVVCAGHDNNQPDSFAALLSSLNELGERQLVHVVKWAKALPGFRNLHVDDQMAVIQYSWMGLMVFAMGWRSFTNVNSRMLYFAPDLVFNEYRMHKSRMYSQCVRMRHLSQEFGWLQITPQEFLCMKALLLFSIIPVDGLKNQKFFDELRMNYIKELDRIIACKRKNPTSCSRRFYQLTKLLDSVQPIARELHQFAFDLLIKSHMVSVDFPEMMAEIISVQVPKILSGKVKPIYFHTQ

AR AF-1 = target: T2, AR AF-1 (Homo sapiens, UniProt P10275); test: Click-chemistry fluorescein labelling, SDS-PAGE; assay type: binding; settings: covalent; […] protein, […] probe, on ice […] min
T2 construct: recombinant AF-1 region, residues 142-485
T2 sequence (P10275 143-486): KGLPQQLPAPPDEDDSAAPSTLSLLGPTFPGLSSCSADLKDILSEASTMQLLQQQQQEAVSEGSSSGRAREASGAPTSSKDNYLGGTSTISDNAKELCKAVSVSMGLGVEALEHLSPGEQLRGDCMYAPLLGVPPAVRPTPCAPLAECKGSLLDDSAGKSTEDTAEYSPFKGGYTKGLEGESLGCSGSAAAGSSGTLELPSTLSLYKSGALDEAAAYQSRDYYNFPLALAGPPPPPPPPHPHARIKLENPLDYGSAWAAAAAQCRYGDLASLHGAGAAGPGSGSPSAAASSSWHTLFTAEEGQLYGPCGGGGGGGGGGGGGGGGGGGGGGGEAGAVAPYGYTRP

| IC50 [1] [µM] | SMILES | Click-chemistry fluorescein labelling, SDS-PAGE (AR AF-1) |
| --- | --- | --- |
| 6.3 ± 0.5 | CCCCCCCCCCCCC(=O)/C=C/CCCOC[C@H](O)CO [(R)-niphatenone B] |  |
| 5.7 ± 0.6 | CCCCCCCCCCCCC(=O)/C=C/CCCOC[C@@H](O)CO [(S)-niphatenone B] |  |
|  | C#CCOCC(O)COCCC/C=C/C(=O)CCCCCCCCCCCC (stereo not drawn) [compound 44, niphatenone B 44] | resulted in covalent binding to both AR AF-1 and GR AF-1 peptide |
